Structures are written as SMILES.

The target of data set [1] is T1, Kynurenine/alpha-aminoadipate aminotransferase, mitochondrial (Homo sapiens, UniProt Q8N5Z0). The data set is described as follows: Ratio of Kinact to Ki for KAT2 (unknown origin).
Target sequence in this assay (Q8N5Z0 30-425 limits assumed): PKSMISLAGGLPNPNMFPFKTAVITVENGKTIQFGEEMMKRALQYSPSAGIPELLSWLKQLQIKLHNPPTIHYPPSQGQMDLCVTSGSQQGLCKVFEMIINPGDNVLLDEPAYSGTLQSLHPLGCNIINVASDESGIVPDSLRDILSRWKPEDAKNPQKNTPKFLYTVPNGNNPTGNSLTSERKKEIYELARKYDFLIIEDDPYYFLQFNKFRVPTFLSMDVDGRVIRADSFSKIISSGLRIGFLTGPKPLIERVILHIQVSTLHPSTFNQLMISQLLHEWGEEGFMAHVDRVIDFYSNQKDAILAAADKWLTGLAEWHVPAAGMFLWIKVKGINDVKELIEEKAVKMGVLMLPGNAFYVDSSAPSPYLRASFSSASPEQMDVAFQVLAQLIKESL
Data set [2] concerns the target T1, Kynurenine/alpha-aminoadipate aminotransferase, mitochondrial. The data set is described as follows: Inhibition of KAT2 (unknown origin).
The next data set has as its system Brain. The data set is described as follows: Drug uptake in CD-1 mouse brain. The format is ADME, tissue-based. Particulars: in vivo.
Data set [3] is described as follows: Drug degradation assessed as metabolite formation by LC-MS/MS analysis. The data set is classed as physicochemical.
For another data set, the system named is P-gp. The data set is described as follows: Efflux ratio in MDCK cells overexpressing Pgp. The format is ADME, cell-based, Canis lupus familiaris. The note with it: dog, MDCK-MDR1.
Data set [4] in a line: Drug uptake in CD-1 mouse cerebral spinal fluid. The data set is classed as ADME, Cerebrospinal fluid. The note with it: in vivo.
Data set [5] can be described thus: Half life in human hepatocytes. The format is ADME, cell-based, Hepatocyte.
The nature of data set [6]: Blood clearance in iv dosed dog. The format is ADME, organism-based, Canis lupus familiaris.
Data set [7] in a line: Oral bioavailability in dog. The data set is classed as ADME, organism-based, Canis lupus familiaris. The note with it: in vivo.
Data set [8] is described as follows: Oral bioavailability in rat. The format is ADME, organism-based. The note with it: in vivo.
Data set [9] is described as follows: Half life in human liver microsomes. The data set is classed as ADME. For orientation: Microsomes from liver hold many membrane-bound enzymes, among them those of drug oxidation.
Data set [10] is described as follows: Blood clearance in iv dosed rat. The format is ADME, organism-based.

As to `COc1cccc(Oc2ccc3c(c2)CC(N)c2nncn2-3)c1` (stereo not given), in data set [1], the Ratio was 2920 M⁻¹ s⁻¹. Besides, in data set [2], it took 201 nM to reach half-maximal inhibition (IC50); the Ki (in general, the dissociation constant of the complex between target and ligand, obtained from inhibition or displacement) turned out to be 81.5 nM; the Kinact is 0.0141 min⁻¹.

In the case of `COc1cccc(Oc2ccc3c(c2)CC(N)c2n[nH]c(=O)n2-3)c1` (stereo not given), the Drug uptake result (with Brain; in data set [4]) was “Active” each time. Further, the Retention_time in data set [3] is listed as 31.8 min. In data set [1], the Ratio was 5060 M⁻¹ s⁻¹. Besides, in the data set with P-gp, the efflux ratio (as a rule, a quotient of directional permeabilities that is used to spot active efflux) is 1.51. Also, the IC50 (commonly the concentration at which inhibition is half-maximal) in data set [2] was determined as 65 nM. Also, the affinity in data set [2], expressed as Ki, was 5.1 nM. The same compound gave a Kinact in [2] of 0.0155 min⁻¹. The half-life (in general, the time needed for the level to fall by half in the phase considered) in [5] is 1.9 h; in [9] it was above 1.73 h. Also, the clearance (commonly the volume of plasma or blood freed of the substance per unit of time) in data set [6] stood at 4.5 mL/min/kg; in data set [10] it was 78.4 mL/min/kg. The bioavailability (as a rule, dose-corrected exposure relative to a reference, in per cent) in data set [7] turned out to be 100%; in data set [8], 40%.

Consider `N[C@H]1Cc2ccccc2N(O)C1=O`, for which the bioavailability in data set [7] was 18.5%; in data set [8], 10.8%.
